Where two headings read alike, the source gives them in different places.
How the values were obtained:
MT-2 = assay: MTT cell viability assay, MT-2; assay type: cell-based; conditions: Homo sapiens, MT2, 24 h exposure
Method: (§1) A549 human lung carcinoma and HeLa human cervical carcinoma cell lines were cultured in Dulbecco’s Modified Eagle Medium (DMEM). MCF7 human breast cancer and leukemic (K562, HL-60, MT-2 and Jurkat) cells, and PBMC (Precision Bioservices, Frederic, MD, USA) were cultured in RPMI 1640. All media were purchased from FUJIFILM Wako (Osaka, Japan) and supplemented with 10% fetal bovine serum (FBS) (Sigma-Aldrich, St. Louis, MO, USA) and 89 μg/mL streptomycin (Meiji Seika Pharma, Tokyo, Japan) at 37 °C in a humid atmosphere and 5% CO2. In experiments, all cancer cell lines and PBMC were cultured in 24-well and 96-well plates (Iwaki brand Asahi Glass, Chiba, Japan) at 2 × 10^4 cells/mL and 1 × 10^6 cells/mL concentrations, respectively for 24 h.
(§2) The cells were exposed to various concentrations (1–100 μM) of the compounds for 24 h at 37 °C. The cells were then stained with MTT solution and incubated for additional 4 h. At the end of this period, supernatants were removed and 100 μL DMSO was added to each well to solubilize the formazan crystals. The absorbance of the solution was determined on the Infinitive M1000 (Tecan, Mannedorf, Switzerland) plate reader at a wavelength of 550 nm with background subtraction at 630 nm.

[1] = tested on: peripheral blood mononuclear cells (PBMC); assay: MTT cell viability assay, PBMC; assay type: cell-based; conditions: PBMC, 24 h exposure
Method: as §1, §2

Jurkat = assay: MTT cell viability assay, Jurkat; assay type: cell-based; conditions: Homo sapiens, 24 h exposure
Method: as §1, §2

MCF7 human breast cancer = assay: MTT cell viability assay, MCF7; assay type: cell-based; conditions: 24 h exposure
Method: as §1, §2

[2] = tested on: A549 human lung carcinoma; assay: MTT cell viability assay, A549; assay type: cell-based; conditions: for IC50: Homo sapiens, A549, MTT, 24 h exposure
Method: as §1, §2

HL-60 = assay: MTT cell viability assay, HL-60; assay type: cell-based; conditions: Homo sapiens, 24 h exposure
Method: as §1, §2

ABL1 kinase [3] = target: T1, ABL1 kinase (Homo sapiens, UniProt P00519); assay: ABL1 kinase inhibition (ADP-Glo Kinase Assay); assay type: biochemical; conditions: ADP-Glo, 1 h incubation, room temperature
T1 construct: purchased Promega, Madison, WI, USA
Method: The ABL1 kinase profiling assay protocol was applied according to the manufacturer`s instructions (Promega, Madison, WI, USA) with the modification proposed in [36]. In this system, the ABL1 kinase and its substrate were diluted with 95 µL 2.5x Kinase Buffer and 15 µL of 100 µM ATP solutions, respectively. Then, the reaction of ABL1 kinase was performed using 2 µL of the compound solution at varying concentrations (0.1–30 µM), 4 µL of kinase working stock, and 4 µL of ATP/substrate working stock in the 384-well plate. After 1 h of incubation at room temperature, the activity of the ABL1 kinase was detected using the ADP-Glo Kinase Assay (Promega, Madison, WI, USA) and the inhibitory kinase activity of compounds in dose-response mode was measured by the Infinitive M1000 luminescence plate reader (Tecan, Groding, Austria).

[4] = tested on: HeLa human cervical carcinoma; assay: MTT cell viability assay, HeLa; assay type: cell-based; conditions: 24 h exposure
Method: as §1, §2

K562 cells = assay: Cell death detection (Hoechst 33342/annexin V/ethidium homodimer III staining); assay type: cell-based, human; conditions: K562, IC50 concentration, 8 h
Method: The cells were then briefly washed twice with 1 × binding buffer. A staining solution containing 50 μL of 1 × binding buffer and 5 μL of FITC-Annexin V solution, 5 μL of ethidium homodimer III solution, or 5 μL of Hoechst 33342 solution was added, and incubated for 15 min at room temperature in the dark. Then, the cells were washed with 1 × binding buffer, and analyzed by the all-in-one fluorescence microscope Biorevo Fluorescence BZ-9000 (Keyence, Osaka, Japan). The number of healthy cells (Hoechst 33342), apoptotic cells (Annexin V), late apoptotic or necrotic cells (Annexin V and Ethidium homodimer III) and necrotic cells (Ethidium homodimer III) were counted as previously described.

CML cell line K562 = assay: MTT cell viability assay, K562; assay type: cell-based, human; conditions: for IC50: Homo sapiens, K562, 24 h, MTT, 24 h exposure, read-out: IC50 Values, K562 Cell Line; for SI (selectivity index): ratio of the IC50 between PBMC and K562 cells
Method: A549 human lung carcinoma and HeLa human cervical carcinoma cell lines were cultured in Dulbecco’s Modified Eagle Medium (DMEM). […] In experiments, all cancer cell lines and PBMC were cultured in 24-well and 96-well plates (Iwaki brand Asahi Glass, Chiba, Japan) at 2 × 10^4 cells/mL and 1 × 10^6 cells/mL concentrations, respectively for 24 h.
as §2, with “The” for “The cells were exposed to various concentrations (1–100 μM) of the compounds for 24 h at 37 °C. The”

[5] = tested on: ERK1/2 and phosphorylated ERK1/2 in K562 cells; assay: Immunoblot analysis of ERK signaling in K562; assay type: cell-based, human; conditions: K562, 10 μM, 6 h
Method: After 6 h of treatment at 37 °C, the cells were lysed in PBS-Laemmli sample buffer and then, immunoblot analysis was conducted using phospho-specific-p44/42 MAPK (Erk1/2) (Thr202/Tyr204) (D13.14.4E) XP Rabbit mAb (1:1000) (Cell Signaling Technology, Danvers, MA, USA) or anti-β-actin clone AC-15 (Sigma-Aldrich, St. Louis, MO, USA). For immunoreactivity detection, the chemiluminescence method was performed as previously described. The band intensity was measured using the ImageJ software (NIH, Bethesda, MD, USA).

ABL1 kinase [6] = target: T1, ABL1 kinase; conditions: a value in the previous paper; cited from earlier work

T1 sequence (P00519 whole entry): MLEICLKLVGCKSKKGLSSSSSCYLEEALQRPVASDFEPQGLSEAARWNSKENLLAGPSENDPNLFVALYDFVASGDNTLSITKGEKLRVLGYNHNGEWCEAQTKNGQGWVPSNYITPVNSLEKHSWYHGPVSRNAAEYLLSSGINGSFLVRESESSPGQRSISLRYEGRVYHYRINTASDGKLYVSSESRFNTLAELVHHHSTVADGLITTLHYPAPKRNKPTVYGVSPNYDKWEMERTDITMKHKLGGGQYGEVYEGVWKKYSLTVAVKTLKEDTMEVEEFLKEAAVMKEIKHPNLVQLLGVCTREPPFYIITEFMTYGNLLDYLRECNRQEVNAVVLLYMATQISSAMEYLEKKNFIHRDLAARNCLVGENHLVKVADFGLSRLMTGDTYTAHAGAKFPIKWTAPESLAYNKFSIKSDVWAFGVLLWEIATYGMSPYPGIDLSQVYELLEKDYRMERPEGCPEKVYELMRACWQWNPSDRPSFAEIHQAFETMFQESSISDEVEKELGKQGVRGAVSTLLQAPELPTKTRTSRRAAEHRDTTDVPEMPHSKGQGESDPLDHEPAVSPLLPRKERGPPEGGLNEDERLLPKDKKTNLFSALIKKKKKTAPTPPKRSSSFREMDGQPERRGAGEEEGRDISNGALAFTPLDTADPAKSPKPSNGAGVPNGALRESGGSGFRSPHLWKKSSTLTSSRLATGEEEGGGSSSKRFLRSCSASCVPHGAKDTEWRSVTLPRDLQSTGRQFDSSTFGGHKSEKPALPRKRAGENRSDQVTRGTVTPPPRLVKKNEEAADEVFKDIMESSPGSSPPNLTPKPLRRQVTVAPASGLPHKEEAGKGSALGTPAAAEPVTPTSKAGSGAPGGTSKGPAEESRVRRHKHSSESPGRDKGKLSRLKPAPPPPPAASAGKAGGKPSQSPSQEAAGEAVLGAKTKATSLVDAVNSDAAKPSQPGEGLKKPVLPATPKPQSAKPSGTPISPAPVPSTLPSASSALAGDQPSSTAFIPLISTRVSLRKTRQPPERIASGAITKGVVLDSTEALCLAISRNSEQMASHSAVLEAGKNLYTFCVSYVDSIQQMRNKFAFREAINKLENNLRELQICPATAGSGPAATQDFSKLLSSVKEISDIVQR

| IC50 (Jurkat) [µM] | IC50 (MCF7 human breast cancer) [µM] | melting point [°C] | IC50 [2] [µM] | IC50 (HL-60) [µM] | IC50 (ABL1 kinase [3]) [µM] | IC50 [4] [µM] | IC50 (CML cell line K562) [µM] | Structure (SMILES) | IC50 (MT-2) [µM] | IC50 [1] [µM] | activity against A549 cell line at 100 µM ([2]; 100 µM) | apoptotic effects on CML cell line (K562 cells) [%] | late apoptotic/necrotic effects (K562 cells) [%] | SI (selectivity index) (CML cell line K562) | ERK phosphorylation (phosphorylated ERK1/2) [5] | amount of ERK1/2 [5] | IC50 (ABL1 kinase [6]) [µM] |
| --- | --- | --- | --- | --- | --- | --- | --- | --- | --- | --- | --- | --- | --- | --- | --- | --- | --- |
| 9.14 ± 0.71 | 51.6 ± 4.75 | 85 to 87 | > 100 | 5.27 ± 0.42 | 7.19 ± 0.65 | 35.3 ± 2.84 | 4.78 ± 1.25 | CC1(C)CC[C@]2(C(=O)OCc3cc(C(F)(F)F)cc(C(F)(F)F)c3)CC[C@]3(C)C(=CC[C@@H]4[C@@]5(C)CC[C@H](O)[C@@](C)(C=O)[C@@H]5CC[C@]43C)[C@@H]2C1 [GP2, Gypsogenin 3,5-bis(trifluromethyl)benzyl ester] | 36.8 ± 4.21 | 52.8 ± 3.82 | inactive | 24 | 4.5 | 11.04 | inhibitory effect of ERK phosphorylation | moderately decreased |  |
|  |  |  |  |  |  |  | 8.94 ± 1.73 | CC1(C)CC[C@]2(C(=O)OCc3ccccc3)CC[C@]3(C)C(=CC[C@@H]4[C@@]5(C)CC[C@H](O)[C@@](C)(C=O)[C@@H]5CC[C@]43C)[C@@H]2C1 [Compound 1c, benzyl ester of gypsogenin] |  | > 100 |  |  |  | >11.19 |  |  | 8.71 ± 1.14 |
| 4.83 ± 0.35 | 15.3 ± 2.11 | 175 to 177 | 24.6 ± 1.94 | 4.36 ± 0.28 | 6.16 ± 0.63 | 5.66 ± 0.32 | 3.19 ± 1.21 | CC1(C)CC[C@]2(C(=O)OCc3ccc(C#N)cc3)CC[C@]3(C)C(=CC[C@@H]4[C@@]5(C)CC[C@H](O)[C@@](C)(C=O)[C@@H]5CC[C@]43C)[C@@H]2C1 [GP5, Gypsogenin 4-cyanobenzyl ester] | 7.26 ± 0.97 | 25.6 ± 2.18 |  | 9.5 | 5.1 | 8.03 | inhibitory effect of ERK phosphorylation | moderately decreased |  |
